From the supplement of paper PMC11451515

Tested on: NOMO1
Assay: cell viability relative to DMSO control; higher = less cytotoxic
Details: 48 h
Method in brief: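 NOMO1, SEM and P12-Ichikawa leukemia cells spent at least four passages adapting to each medium before use. They were seeded at 500 cells/well (NOMO1, SEM) or 1000 cells/well (P12-Ichikawa) in 5 μl in 1536-well plates and pin-dosed with library compounds in DMSO at 11 threefold steps from 47 μM down to 0.79 nM. After 48 h at 37°C, CellTiter-Glo One luminescence was read. Viability is reported as a percentage of the DMSO wells on each plate, with cell-free wells as background.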

[1] = HPLM + 10% dialyzed FBS, 0.000781 µM
[2] = HPLM + 10% dialyzed FBS, 0.00234 µM
[3] = HPLM + 10% dialyzed FBS, 0.00702 µM
[4] = HPLM + 10% dialyzed FBS, 0.0211 µM
[5] = HPLM + 10% dialyzed FBS, 0.0632 µM
[6] = HPLM + 10% dialyzed FBS, 0.19 µM
[7] = HPLM + 10% dialyzed FBS, 0.569 µM
[8] = HPLM + 10% dialyzed FBS, 1.71 µM
[9] = HPLM + 10% dialyzed FBS, 5.12 µM
[10] = HPLM + 10% dialyzed FBS, 15.4 µM
[11] = HPLM + 10% dialyzed FBS, 46.1 µM
[12] = RPMI 5 mM glucose + 10% FBS, 0.000781 µM
[13] = RPMI 5 mM glucose + 10% FBS, 0.00234 µM
[14] = RPMI 5 mM glucose + 10% FBS, 0.00702 µM
[15] = RPMI 5 mM glucose + 10% FBS, 0.0211 µM
[16] = RPMI 5 mM glucose + 10% FBS, 0.0632 µM
[17] = RPMI 5 mM glucose + 10% FBS, 0.19 µM
[18] = RPMI 5 mM glucose + 10% FBS, 0.569 µM
[19] = RPMI 5 mM glucose + 10% FBS, 1.71 µM
[20] = RPMI 5 mM glucose + 10% FBS, 5.12 µM
[21] = RPMI 5 mM glucose + 10% FBS, 15.4 µM
[22] = RPMI 5 mM glucose + 10% FBS, 46.1 µM
[23] = RPMI 5 mM glucose + 10% dialyzed FBS, 0.000781 µM
[24] = RPMI 5 mM glucose + 10% dialyzed FBS, 0.00234 µM
[25] = RPMI 5 mM glucose + 10% dialyzed FBS, 0.00702 µM
[26] = RPMI 5 mM glucose + 10% dialyzed FBS, 0.0211 µM
[27] = RPMI 5 mM glucose + 10% dialyzed FBS, 0.0632 µM
[28] = RPMI 5 mM glucose + 10% dialyzed FBS, 0.19 µM
[29] = RPMI 5 mM glucose + 10% dialyzed FBS, 0.569 µM
[30] = RPMI 5 mM glucose + 10% dialyzed FBS, 1.71 µM
[31] = RPMI 5 mM glucose + 10% dialyzed FBS, 5.12 µM
[32] = RPMI 5 mM glucose + 10% dialyzed FBS, 15.4 µM
[33] = RPMI 5 mM glucose + 10% dialyzed FBS, 46.1 µM

| Compound | cell viability [1] [%] | cell viability [2] [%] | cell viability [3] [%] | cell viability [4] [%] | cell viability [5] [%] | cell viability [6] [%] | cell viability [7] [%] | cell viability [8] [%] | cell viability [9] [%] | cell viability [10] [%] | cell viability [11] [%] | cell viability [12] [%] | cell viability [13] [%] | cell viability [14] [%] | cell viability [15] [%] | cell viability [16] [%] | cell viability [17] [%] | cell viability [18] [%] | cell viability [19] [%] | cell viability [20] [%] | cell viability [21] [%] | cell viability [22] [%] | cell viability [23] [%] | cell viability [24] [%] | cell viability [25] [%] | cell viability [26] [%] | cell viability [27] [%] | cell viability [28] [%] | cell viability [29] [%] | cell viability [30] [%] | cell viability [31] [%] | cell viability [32] [%] | cell viability [33] [%] |
| --- | --- | --- | --- | --- | --- | --- | --- | --- | --- | --- | --- | --- | --- | --- | --- | --- | --- | --- | --- | --- | --- | --- | --- | --- | --- | --- | --- | --- | --- | --- | --- | --- | --- |
| CN1CC(=O)N2[C@H](c3ccc4c(c3)OCO4)c3[nH]c4ccccc4c3C[C@@H]2C1=O | 111 | 99.6 | 109 | 107 | 103 | 94.8 | 98.7 | 83.3 | 91.5 | 90.7 | 74.8 | 97.2 | 96.1 | 89.1 | 88.4 | 101 | 101 | 97 | 83.9 | 92.8 | 97.8 | 77 | 107 | 93.5 | 97.6 | 98.3 | 88.4 | 103 | 98.9 | 89 | 81.3 | 109 | 79.1 |
| CC1=CC(=CC(=C1C\C2=N\CCN2)C)C(C)(C)C | 91.4 | 115 | 107 | 129 | 104 | 109 | 108 | 87.7 | 57.4 | 34.2 | 35.9 | 99.3 | 98.7 | 92.9 | 100 | 114 | 96.3 | 98.4 | 91.1 | 69.5 | 51.5 | 43.9 | 86.8 | 106 | 101 | 100 | 109 | 99.8 | 116 | 78.9 | 49.1 | 56.8 | 50.7 |
| C[C@@H]1CCO[C@H]2CN\3/C=C(/C(=O)NCC4=C(F)C=C(F)C=C4)C(=O)\C(=C3C(=O)N12)O | 107 | 103 | 117 | 116 | 109 | 109 | 101 | 90.6 | 105 | 102 | 108 | 87.6 | 91.1 | 110 | 88.7 | 92.6 | 88.5 | 84.5 | 102 | 86.3 | 95.4 | 93.9 | 90.3 | 82 | 106 | 96.9 | 99.6 | 85.8 | 103 | 98.4 | 95.5 | 87.1 | 96.2 |
| Nc1ncnc2c1ncn2[C@@H]1O[C@H](CO)C[C@H]1O | 105 | 97.1 | 97.1 | 102 | 94.3 | 101 | 73 | 87.4 | 95.2 | 81.7 | 79.8 | 85.7 | 87 | 94.7 | 87.9 | 93 | 84.4 | 88 | 80.7 | 91.1 | 82.5 | 92.4 | 103 | 109 | 94.9 | 103 | 103 | 90.2 | 87.8 | 92.2 | 85.6 | 91.2 | 92.1 |
| CN1CCCN(CC1)C2=CC=C3C(=O)\C(=C/4SC5=C(C=CC=C5)N4C3=N2)C(=O)NCC6=CN=C(C)C=N6 | 127 | 122 | 108 | 130 | 110 | 96.6 | 125 | 105 | 116 | 115 | 94.2 | 106 | 103 | 99.8 | 94.1 | 94.4 | 107 | 101 | 105 | 97.3 | 92.4 | 86.7 | 103 | 105 | 111 | 91.2 | 119 | 115 | 102 | 98.7 | 82.9 | 89 | 84.8 |
| NC[C@H]1O[C@H](O[C@@H]2[C@H](O)[C@@H](O[C@H]3O[C@H](CO)[C@@H](O)[C@H](N)[C@H]3O)[C@H](N)C[C@@H]2N)[C@H](O)[C@@H](O)[C@@H]1O | 132 | 122 | 121 | 111 | 135 | 127 | 113 | 129 | 112 | 121 | 109 | – | – | – | – | – | – | – | – | – | – | – | 120 | 128 | 114 | 124 | 113 | 124 | 113 | 123 | 120 | 106 | 112 |
| C=C[C@H]1CN2CCC1C[C@@H]2C(O)c1ccnc2ccc(OC)cc12 (stereo not given in full) | 111 | 133 | 115 | 107 | 135 | 116 | 128 | 108 | 105 | 125 | 102 | 111 | 116 | 114 | 108 | 127 | 120 | 119 | 119 | 116 | 107 | 104 | 110 | 119 | 116 | 121 | 124 | 110 | 127 | 117 | 106 | 107 | 100 |
